In test [1] the target is T1, TGFBR2 (Homo sapiens, UniProt P37173).
T1 construct: purchased DiscoveRx
Kind of test: Kinome scan (scanMAX, competitive protein kinase binding) TGFBR2. As to conditions: 1 μM; data not shown. As to the method:
(§1) Competitive protein kinase binding assays. Kinome scan (468 kinases) was performed by scanMAX (DiscoveRx) at 1 μM. Kinome scan procedure has been followed as described in (Bemas M J, Cardoso F L, Daley S K, Weinand M E, Campos A R, Ferreira A J, et al. Nature protocols. 2010; 5(7):1265-72.). Kd determination for ACVR1B, TGFRB1, TGFBR2 and KDR has been done in duplicates with 11-point 3-fold serial dilution starting from 30 μM (DiscoveRx). All the compounds were dissolved in DMSO. Binding constants (Kds) were calculated with a standard dose-response curve using the Hill equation and the The Hill Slope was set to −1. Curves were fitted using a non-linear least square fit with the Levenberg-Marquardt algorithm.

The target of another test is T2, BMPR1B (Homo sapiens, UniProt O00238).
T2 construct: purchased DiscoveRx
T2 sequence (O00238 14-502): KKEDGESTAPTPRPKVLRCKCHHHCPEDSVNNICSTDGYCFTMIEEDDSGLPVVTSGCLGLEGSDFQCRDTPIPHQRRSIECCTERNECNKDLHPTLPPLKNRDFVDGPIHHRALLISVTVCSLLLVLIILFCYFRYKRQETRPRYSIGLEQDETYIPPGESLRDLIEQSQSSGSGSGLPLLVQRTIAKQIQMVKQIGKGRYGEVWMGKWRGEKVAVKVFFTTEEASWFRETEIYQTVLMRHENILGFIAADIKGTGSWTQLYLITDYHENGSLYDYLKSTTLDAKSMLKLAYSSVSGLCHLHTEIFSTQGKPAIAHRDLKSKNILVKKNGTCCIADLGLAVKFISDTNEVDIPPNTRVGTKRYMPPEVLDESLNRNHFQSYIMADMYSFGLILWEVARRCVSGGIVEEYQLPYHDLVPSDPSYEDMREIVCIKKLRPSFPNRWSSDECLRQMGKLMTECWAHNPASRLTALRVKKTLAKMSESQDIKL
Kind of test: Kinome scan (scanMAX, competitive protein kinase binding) BMPR1B. As to conditions: 1 μM; data not shown. As to the method:
as §1

Test [2] has as its target T1, TGFBR2. Kind of test: Kd determination (DiscoveRx) TGFBR2. Type of test: binding. As to conditions: data not shown. How it is done:
as §1

The next test relates to hPSC-EC. How it is done: RNA isolation. RNA isolation from FACS sorted or cultured cells was performed using RNeasy micro kit or RNeasy mini kit (both Qiagen) or automated Maxwell Total RNA purification kit (Promega), all procedures included DNAse I digestion. Procedures were followed as described in the kit protocols.
RNA-sequencing and analysis. Total RNA from the FACS sorted or cell cultured treated samples was subjected to oligo (dT) capture and enrichment, and the resulting mRNA fraction was used to construct complementary DNA libraries. Transcriptome sequencing (RNA-seq) was performed on the Illumina HiSeq platform using the standard protocol (TruSeq Stranded Total RNA Library, Illumina) that generated approximately 30 million reads of 50 base-pair per sample. FACS sorted experiments for GFP+ and GFP− cells were performed using 6 replicates each from 2 different clones. The RNA-seq reads were then mapped to the human genome (NCBI build 37) by using GSNAP (Wu T D, Nacu S. Bioinformatics (Oxford, England). 2010; 26(7):873-81.). Comparison was done between 12 samples of GFP+ and GFP− samples from two clones. TGFBR2 inhibitor treated hPSC-EC samples were mapped to the human genome (hg19/Refseq) using STAR (Dobin A, Davis Calif., Schlesinger F, Drenkow J, Zaleski C, Jha S, et al. Bioinformatics (Oxford, England). 2013; 29(1):15-21.) and counting was performed using union mode of HtSeq (Anders S, Pyl P T, Huber W. Bioinformatics (Oxford, England). 2015; 31(2):166-9.). Differential expression was performed using Deseq2 (Dobin A, Davis C A, Schlesinger F, Drenkow J, Zaleski C, Jha S, et al. Bioinformatics (Oxford, England). 2013; 29(1):15-21.). Gene set enrichment analysis was performed using GSEA (Subramanian A, Tamayo P, Mootha V K, Mukherjee S, Ebert B L, Gillette M A, et al. Proceedings of the National Academy of Sciences of the United States of America. 2005; 102(43):15545-50.) using Hallmarks MsigDb database (Liberzon A, Birger C, Thorvaldsdottir H, Ghandi M, Mesirov J P, Tamayo P. Cell systems. 2015; 1(6):417-25.) using weighted p2 analysis, following default conditions with ignoring gene sets smaller than 15 and larger than 5000 genes.

The next test deals with hPSC-ECs (GFP+ cells). The test is described as follows: Electric cell-substrate impedance sensing (ECIS) of transendothelial barrier integrity. The class given is cell-based, human. As to conditions: for effect on EC barrier in co-application with VEGFA (functional barrier assays): under both conditions, FIG. 5. As to the method:
Electric cell-substrate impedance sensing. TBI was detected in real time using the ECIS® Z-theta system (Applied Biophysics, McAlister G C, Nusinow D P, Jedrychowski M P, Wuhr M, Huttlin E L, Erickson B K, et al. Analytical chemistry. 2014; 86(14):7150-8.) using 96 well array plates (96widf, Applied Biophysics) at 250 Hz frequency. Plates were coated with 100 μL of fibronectin (25 μg/mL; for 30 min at RT), fibronectin was replaced by complete media and electrodes were stabilized for 1 h on the system. Afterwards, media was removed and hPSC-ECs were seeded (10,000 cells per well). Cells were left for 2 days to reach full confluency and then treated with compounds with or without VEGFA (50 ng/mL). All the treatments were performed in triplicates.

Test [3] deals with CLDN5 transcriptional reporter (CLDN5-P2A-GFP) in hPSC-EC. The test is described as follows: CLDN5-GFP reporter, percentage of GFP+ cells by FACS. The class given is cell-based, human. As to the method: Fluorescence activated cell sorting and analysis. Human PSC-EC were dissociated from plates by Accutase (StemCell Technologies) and filtered before sorting with 30 μm filters (Miltenyi Biotec). Dissociated cells were kept in full media during sorting and sorted in cooled collection tubes with complete EC media supplemented with 20% FBS and 25 mM HEPES. Sorting was performed with BD FACS ARIA III (BD Biosciences) using 4-way purity precision mode. FACS plots were generated by Flowjo_V10 software. In case of RNA-seq minimum of 100,000 cells was sorted. After sorting, cells were spun down (610 g, 10 min) and lysed in 650 μL RLT lysis buffer (Qiagen)+β-mercaptoethanol (1%) and subsequently vortexed for 1 min at room temperature and snap frozen. In case of mass spectrometry analysis minimum of 10^6 cells was sorted, cells were washed with PBS^−(Life Technologies), spun down (110 g, 3 min), PBS was removed and cell pellets snap frozen.
Compound library screening with fluorescence activated cell readout. Compounds were plated in replicate plates, and each plate had DMSO treated controls. ECs (10,000 cells per well) were seeded on fibronectin coated plates in full media. Cells were treated 2 days after seeding and the FACS measurement using MACS quant analyzer 10 (Miltenyi biotec) was performed. Screen data was analyzed in Flowjo_V10 software.
A general note: Flow cytometry measures light scatter and fluorescence of single cells or particles in a stream.

Where [4] appears, read: RNA-seq 8 h and 48 h after treatment.

T1 sequence (P37173 23-567): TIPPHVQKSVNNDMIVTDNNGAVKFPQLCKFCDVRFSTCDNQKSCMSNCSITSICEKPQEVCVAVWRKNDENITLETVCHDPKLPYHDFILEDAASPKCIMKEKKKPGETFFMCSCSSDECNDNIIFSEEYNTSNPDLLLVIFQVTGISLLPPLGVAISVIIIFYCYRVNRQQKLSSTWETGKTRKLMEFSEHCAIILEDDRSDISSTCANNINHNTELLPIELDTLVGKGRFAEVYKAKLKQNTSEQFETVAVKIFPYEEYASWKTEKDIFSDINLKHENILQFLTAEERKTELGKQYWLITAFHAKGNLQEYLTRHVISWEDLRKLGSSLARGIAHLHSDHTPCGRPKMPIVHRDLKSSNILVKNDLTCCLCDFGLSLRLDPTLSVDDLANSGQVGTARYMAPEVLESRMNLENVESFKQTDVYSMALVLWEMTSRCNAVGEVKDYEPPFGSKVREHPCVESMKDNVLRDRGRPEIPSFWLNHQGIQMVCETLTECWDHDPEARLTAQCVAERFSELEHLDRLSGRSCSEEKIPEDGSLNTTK

In the case of `Cc1cccc(-c2n[nH]cc2-c2ccc3ncccc3n2)n1` [Repsox, 2-[3-(6-Methyl-2-pyridinyl)-1H-pyrazol-4-yl]-1,5-naphthyridine], at TGFBR2 [1], the “inhibitory activity on TGFBR2, large kinase panel” value is recorded as “strong inhibitory activity”. The “inhibition activity on BMPR1B, large kinase panel” value at BMPR1B is “weaker inhibition activity”. Besides, the “Kd (inhibitory activities) for TGFBR2” value on TGFBR2 [2] is “nanomolar inhibitory activities”. For the same compound, in the test with hPSC-EC (setting [4]), the “BMP signaling (ENG, LRG1 and BMPR2)” value was “potently inhibited”; the CLDN5 expression entry is recorded as “strong upregulation”; the GSK3ß expression result is “downregulation”; the PLVAP expression result is “downregulation”. Moreover, in the test on hPSC-EC (setting [4]), the RHOB expression entry is reported as “Downregulation”; the “SMAD6 (TGFß antagonist) expression” value was “inducing”; the “expression of KDR (VEGFR2) and PECAM1 (CD31)” value is “did not change”; the “expression of Wnt target genes (AXIN2, APCDD1, TNFRSF19) and receptors for Wnt FZD4 and LRP1” value was “upregulation”. Moreover, in the test on hPSC-EC (setting [4]), the “expression of antagonists of BMP signaling (BMPER, GREM2 and GDF6)” value is “Most striking upregulation”; the “expression of inflammation genes (NFATC2, JAK1, JAK3 and ICAM1)” value was “downregulate”; the “expression of other tight junctions or regulators of tight junctions (MARVELD3, GJA4, GJA5, IFITM3)” value is on record as “Upregulation”. The TGFß pathway regulation result with hPSC-EC (RNA-seq / GSEA Hallmarks MsigDB) is listed as “most potent compound”. In addition, the “expression of SOX17 and KLF4” value in the test with hPSC-EC (RNA-seq after treatment) is recorded as “Induction”. Further, in the test on hPSC-EC (RNA-seq, data not shown), the “VEGFR1 (FLT1) expression” value is on record as “upregulated”; the “expression of angiogenesis related genes (ESM1, ANGPTL4 and PPARGC1A)” value is on record as “most potent compound in downregulating”. Moreover, the “rescue of TBI, impedance real time measurement” value in the test with hPSC-ECs (GFP+ cells) (10 μM, co-treatment with 50 ng/mL VEGFA, GFP+ cells) is “rescues the loss-of TBI induced by VEGFA treatment”. For the same compound, the “effect on EC barrier in co-application with VEGFA (functional barrier assays)” value (“effect on EC barrier in co-application” for short) in the test with hPSC-ECs (GFP+ cells) (VEGFA 50 ng/mL) is “strong EC barrier promoting effect”.

For `CCN(CC)CCNC(=O)c1c(C)[nH]c(/C=C2\C(=O)Nc3ccc(F)cc32)c1C` [SU11248], in test [3] (5 μM SU11248 for 2 days, FACS), the “% of GFP+ cells” value worked out at 99%. The “change in GFP+ (reporter gene positive) cells upon treatment” value in test [3] (FACS 2 days after treatment, VEGFA 50 ng/mL) was “increase of reporter gene positive cells”. In addition, the “resistance to barrier breakdown by VEGFA, ECIS” value with hPSC-ECs (GFP+ cells) (cells treated with 5 μM SU11248, VEGFA 50 ng/mL) was “resistant to barrier breakdown by VEGFA”.

For the compound `Cc1cccc(-c2[nH]c(C(C)(C)C)nc2-c2ccc3c(c2)OCO3)n1` [SB505124], the “effect on EC barrier in co-application” value in the test with hPSC-ECs (GFP+ cells) (VEGFA 50 ng/mL) is recorded as “partial effect”.

Take `NC(=O)c1ccc(-c2nc(-c3ccc4c(c3)OCO4)c(-c3ccccn3)[nH]2)cc1` [SB431542, 4-(4-Benzo[1,3]dioxol-5-yl-5-pyridin-2-yl-1H-imidazol-2-yl)-benzamide]: the “effect on EC barrier in co-application” value in the test on hPSC-ECs (GFP+ cells) (VEGFA 50 ng/mL) is given as “no effect”.

Regarding `O=C(NC1CCOCC1)c1ccc(-c2cc(-c3c[nH]nc3-c3ccccn3)ccn2)cc1` [GW788388, 4-[4-[3-(2-Pyridinyl)-1H-pyrazol-4-yl]-2-pyridinyl]-N-(tetrahydro-2H-pyran-4-yl)-benzamide], the “inhibitory activity on TGFBR2, large kinase panel” value at TGFBR2 [1] is given as “strong inhibitory activity”. The “inhibition activity on BMPR1B, large kinase panel” value at BMPR1B was “weaker inhibition activity”. Also, the “Kd (inhibitory activities) for TGFBR2” value at TGFBR2 [2] is listed as “nanomolar inhibitory activities”. Moreover, the “effect on EC barrier in co-application” value with hPSC-ECs (GFP+ cells) (VEGFA 50 ng/mL) is listed as “prevented barrier disruption with VEGFA”.

The record behind these values is US20210247385A1, “METHODS FOR ASSESSING TRANSENDOTHELIAL BARRIER INTEGRITY” (Hoffmann-La Roche Inc., priority 2018, published 2021).
